These results are taken from PubChem BioAssay (NCI).

Values joined by “and” are separate entries in the source; they are usually repeats but may differ in a detail not shown here. Equal entries are not always repeated.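 Exposure lasted 48 hours, with cells grown in 96-well plates and compounds tested at five concentrations. GI50 is the concentration that inhibits growth by half. TGI denotes the concentration required for complete inhibition of growth.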 A value given as a limit tells only on which side of the number the result lay.

Some test systems named below: 786-0 renal; A498 renal; HT29 colon; M14 melanoma; NCI/ADR-RES ovarian; SF-268 CNS; SF-539 CNS; SK-MEL-5 melanoma; TK-10 renal; U251 CNS.
Common to all, as to experiment: DTP human tumour cell line panel, 48 h

For orientation: GI50 means the concentration giving 50% growth inhibition. One may read the TGI as the concentration at which net growth stops. The low end stands for greater sensitivity of the cells, the high end for lower sensitivity of the cells. Take `C=C1SC(=Nc2ccccc2Cl)N(C(=O)c2sc3ccccc3c2Cl)C12CCCCC2`: the GI50 was 37.9 µM with 786-0 renal; 2.77 µM in the assay with A498 renal; 6.71 µM with HT29 colon; 45.1 µM with M14 melanoma; 3.51 µM with NCI/ADR-RES ovarian; 11.7 µM in the assay with SF-268 CNS. Further, the GI50 in the assay with SF-539 CNS was 34.9 µM; in the assay with SK-MEL-5 melanoma, 8.2 µM; in the assay with TK-10 renal, 15.2 µM; with U251 CNS, 4.42 µM. In addition, the TGI with 786-0 renal was above 100 µM; with A498 renal, 74.6 µM; with HT29 colon it was above 100 µM; with M14 melanoma it was above 100 µM; in the assay with NCI/ADR-RES ovarian, above 100 µM; in the assay with SF-268 CNS, above 100 µM. The TGI in the assay with SF-539 CNS, with SK-MEL-5 melanoma, in the assay on TK-10 renal and with U251 CNS was above 100 µM each time.

As for `Nc1ccc(COC(O)CN2CCCCC2)cc1[N+](=O)[O-]` (stereo unspecified), the TGI in the assay with 786-0 renal, in the assay with A498 renal, in the assay with HT29 colon, with M14 melanoma, in the assay on NCI/ADR-RES ovarian and in the assay with SF-268 CNS was above 100 µM throughout. Further, the TGI in the assay with SF-539 CNS, in the assay with SK-MEL-5 melanoma, with TK-10 renal and in the assay with U251 CNS was above 100 µM each time.

In the case of `Cc1nc2ccccn2c1NC(=O)NNC(=S)Nc1ccc(F)cc1`, the GI50 with 786-0 renal, in the assay with A498 renal, in the assay on HT29 colon, with M14 melanoma, in the assay with NCI/ADR-RES ovarian and in the assay on SF-268 CNS was above 100 µM throughout. For the same compound, the GI50 with SF-539 CNS, with SK-MEL-5 melanoma, in the assay on TK-10 renal and in the assay with U251 CNS was above 100 µM throughout. In addition, the TGI in the assay on 786-0 renal, with A498 renal, in the assay on HT29 colon, with M14 melanoma, in the assay with NCI/ADR-RES ovarian and in the assay on SF-268 CNS was above 100 µM each time. The TGI with SF-539 CNS, in the assay with SK-MEL-5 melanoma, in the assay with TK-10 renal and in the assay on U251 CNS was above 100 µM each time.

For `O=C(/C=C1\C(=O)N(Cc2ccccc2)c2ccccc21)c1ccc(OCCN2CCCCC2)cc1`, the GI50 in the assay with 786-0 renal is 1.58 µM; in the assay on A498 renal it was 14.2 µM; in the assay with HT29 colon, 1.82 µM; in the assay on M14 melanoma it was 1.92 µM; in the assay with NCI/ADR-RES ovarian, 3.14 µM; with SF-268 CNS it was 2.98 µM. Moreover, the GI50 was 2.07 µM in the assay with SF-539 CNS, 12.6 µM with SK-MEL-5 melanoma, 1.58 µM in the assay with TK-10 renal and 1.91 µM in the assay on U251 CNS. Further, the TGI was 3.06 µM with 786-0 renal; 28.8 µM with A498 renal; 3.36 µM in the assay on HT29 colon; 3.72 µM in the assay on M14 melanoma; 11.7 µM in the assay with NCI/ADR-RES ovarian; 10.7 µM with SF-268 CNS. For the same compound, the TGI in the assay with SF-539 CNS was found to be 4.14 µM; with SK-MEL-5 melanoma it was 25.4 µM; in the assay with TK-10 renal it was 2.97 µM; in the assay with U251 CNS, 3.35 µM.

Turning to `C[C@]12CC[C@H]3[C@@H](CC4SC(N)=NC45C/C(=N/NC(N)=O)CC[C@]35C)[C@@H]1CCC2=O` (stereo partly specified), the GI50 with 786-0 renal is 1.39 µM; in the assay on A498 renal, 2.1 µM; in the assay on HT29 colon it was 1.88 µM; in the assay with M14 melanoma it was 1.94 µM; with NCI/ADR-RES ovarian, 1.94 µM; in the assay with SF-268 CNS it was 1.78 µM. Moreover, the GI50 was 2.05 µM with SF-539 CNS, 1.57 µM with SK-MEL-5 melanoma, 2.29 µM in the assay with TK-10 renal and 1.77 µM with U251 CNS. Besides, the TGI with 786-0 renal was determined as 2.82 µM; with A498 renal, 6.83 µM; in the assay on HT29 colon it was 3.73 µM; in the assay with M14 melanoma, 3.77 µM; with NCI/ADR-RES ovarian it was 3.87 µM; in the assay on SF-268 CNS it was 4.11 µM. For the same compound, the TGI in the assay with SF-539 CNS stood at 5.23 µM; in the assay on SK-MEL-5 melanoma it was 2.97 µM; with TK-10 renal it was 5.45 µM; in the assay with U251 CNS it was 3.22 µM.

For `ClCc1ccccc1Cn1cnc2c(Cl)ncnc21`, the GI50 in the assay on 786-0 renal was 17.7 µM; in the assay on A498 renal, 17.4 µM; with HT29 colon, 3.56 µM; in the assay with M14 melanoma it was 1.94 µM; in the assay with NCI/ADR-RES ovarian it was 2.21 µM; in the assay with SF-268 CNS, 3.24 µM. The GI50 in the assay on SF-539 CNS is 10.7 µM; in the assay with SK-MEL-5 melanoma, 1.4 µM; with TK-10 renal it was 23.1 µM; in the assay with U251 CNS it was 2.65 µM. In addition, the TGI in the assay with 786-0 renal was 38.4 µM; in the assay with A498 renal it was 32.2 µM; with HT29 colon, above 100 µM; with M14 melanoma, 3.74 µM; with NCI/ADR-RES ovarian, 4.72 µM; in the assay on SF-268 CNS it was 10.9 µM. The TGI stood at 24.2 µM in the assay on SF-539 CNS, 2.88 µM in the assay on SK-MEL-5 melanoma, 46.7 µM in the assay with TK-10 renal and 6.11 µM with U251 CNS.

On to `Cc1c(N)nc(C(CC(N)=O)NCC(N)C(N)=O)nc1C(=O)NC(C(=O)NC(C)C(O)C(C)C(=O)NC(C(=O)NCCc1nc(-c2nc(C(=O)NCCCNC(C)c3ccccc3)cs2)cs1)C(C)O)C(OC1OC(CO)C(O)C(O)C1OC1OC(CO)C(O)C(OC(N)=O)C1O)c1cnc[nH]1` (stereo unspecified), for which the GI50 in the assay with 786-0 renal was 1.38 µM; with M14 melanoma, 5.13 µM; with SF-268 CNS it was 11.1 µM; in the assay with SF-539 CNS, 0.0376 µM; with SK-MEL-5 melanoma it was 1.51 µM; in the assay on TK-10 renal, above 100 µM. The GI50 in the assay with U251 CNS is 2.32 µM. For the same compound, the TGI was 43.7 µM and 33.9 µM in the assay on 786-0 renal; 27.5 µM in the assay on A498 renal; 50 µM and > 100 µM in the assay with HT29 colon; 29.6 µM and > 100 µM with M14 melanoma; 45.5 µM in the assay on NCI/ADR-RES ovarian; 50 µM and 94.7 µM in the assay on SF-268 CNS. In addition, the TGI with SF-539 CNS was 0.476 µM and 0.681 µM; in the assay with SK-MEL-5 melanoma it was 14.9 µM and 18.6 µM; in the assay with TK-10 renal it was 50 µM and > 100 µM; in the assay with U251 CNS it was 24 µM and 56.6 µM.

Consider `O=C(C#Cc1ccccc1)C1=Cc2ccccc2OC1`, for which the TGI with 786-0 renal is 6.17 µM; in the assay on A498 renal, 39.2 µM; in the assay with HT29 colon, 5.02 µM; in the assay on M14 melanoma it was 8.21 µM; with NCI/ADR-RES ovarian, 14.4 µM; in the assay on SF-268 CNS it was 12.5 µM. Besides, the TGI is 4.89 µM in the assay with SK-MEL-5 melanoma, 3.58 µM in the assay with TK-10 renal and above 100 µM with U251 CNS.
